Earlier results, collected in US11666686B2, “Amtimicrobial silicones” (WYNNVISION, LLC, priority 2020, dated 2023).

pKa: ~10
SMILES: CCCCCCCCCCCCCCN(C)C [C14, N,N-dimethyltetradecylamine]
